Test results as given in ChEMBL document CHEMBL5724914, “Linking interpersonal differences in gut microbiota composition and drug biotransformation activity” (2024).

Assay: (§1) The drug is tested on WLS-027 corresponding to human gut metagenome with ENA study accession number: PRJEB37062 and ENA sample accession number: ERS12561744 for biotransformation under anaerobic condition. The drug concentrations were measured over 9 timepoints collected between 0 and 24 hours of incubation by liquid-chromatography-coupled mass spectrometry (LC–MS)
Conditions: 2 µM
Further: call rule not given here.

Bacterial Biotransformation | Compound
Compound metabolized | CC(C)c1c(C(=O)Nc2ccccc2)c(-c2ccccc2)c(-c2ccc(F)cc2)n1CC[C@@H](O)C[C@@H](O)CC(=O)O [ATORVASTATIN]
Compound NOT metabolized | CN(C)CCc1c[nH]c2ccc(Cn3cncn3)cc12.O=C(O)c1ccccc1 [RIZATRIPTAN BENZOATE]

Assay: as §1, with “Z-010” for “WLS-027”, “to” for “to human gut”, “ERS12561810” for “ERS12561744”
Conditions: 2 µM

Bacterial Biotransformation | Compound
Compound metabolized | CC(C)c1c(C(=O)Nc2ccccc2)c(-c2ccccc2)c(-c2ccc(F)cc2)n1CC[C@@H](O)C[C@@H](O)CC(=O)O [ATORVASTATIN]
Compound NOT metabolized | CN(C)CCc1c[nH]c2ccc(Cn3cncn3)cc12.O=C(O)c1ccccc1 [RIZATRIPTAN BENZOATE]

Assay: as §1, with “Z-002” for “WLS-027”, “rabbit” for “human”, “ERS12561802” for “ERS12561744”
Conditions: 2 µM

Bacterial Biotransformation | Compound
Compound metabolized | CC(C)c1c(C(=O)Nc2ccccc2)c(-c2ccccc2)c(-c2ccc(F)cc2)n1CC[C@@H](O)C[C@@H](O)CC(=O)O [ATORVASTATIN]
Compound NOT metabolized | CN(C)CCc1c[nH]c2ccc(Cn3cncn3)cc12.O=C(O)c1ccccc1 [RIZATRIPTAN BENZOATE]

Conditions: human gut metagenome, 24 h, 2 µM

Bacterial Biotransformation | Compound
Compound metabolized | CC(C)c1c(C(=O)Nc2ccccc2)c(-c2ccccc2)c(-c2ccc(F)cc2)n1CC[C@@H](O)C[C@@H](O)CC(=O)O [ATORVASTATIN]
Compound NOT metabolized | CN(C)CCc1c[nH]c2ccc(Cn3cncn3)cc12.O=C(O)c1ccccc1 [RIZATRIPTAN BENZOATE]

Assay: as §1, with “Z-026” for “WLS-027”, “to” for “to human gut”, “ERS12561825” for “ERS12561744”
Conditions: 2 µM

Bacterial Biotransformation | Compound
Compound NOT metabolized | CC(C)c1c(C(=O)Nc2ccccc2)c(-c2ccccc2)c(-c2ccc(F)cc2)n1CC[C@@H](O)C[C@@H](O)CC(=O)O [ATORVASTATIN]
Compound NOT metabolized | CN(C)CCc1c[nH]c2ccc(Cn3cncn3)cc12.O=C(O)c1ccccc1 [RIZATRIPTAN BENZOATE]

Assay: as §1, with “WLS-039” for “WLS-027”, “ERS12561746” for “ERS12561744”
Conditions: 2 µM

Bacterial Biotransformation | Compound
Compound metabolized | CC(C)c1c(C(=O)Nc2ccccc2)c(-c2ccccc2)c(-c2ccc(F)cc2)n1CC[C@@H](O)C[C@@H](O)CC(=O)O [ATORVASTATIN]
Compound NOT metabolized | CN(C)CCc1c[nH]c2ccc(Cn3cncn3)cc12.O=C(O)c1ccccc1 [RIZATRIPTAN BENZOATE]

Conditions: human gut metagenome, 24 h, 2 µM
Remark: another data set of the same source

Bacterial Biotransformation | Compound
Compound metabolized | CC(C)c1c(C(=O)Nc2ccccc2)c(-c2ccccc2)c(-c2ccc(F)cc2)n1CC[C@@H](O)C[C@@H](O)CC(=O)O [ATORVASTATIN]
Compound NOT metabolized | CN(C)CCc1c[nH]c2ccc(Cn3cncn3)cc12.O=C(O)c1ccccc1 [RIZATRIPTAN BENZOATE]

Conditions: human gut metagenome, 24 h, 2 µM
Remark: another data set of the same source

Bacterial Biotransformation | Compound
Compound NOT metabolized | CC(C)c1c(C(=O)Nc2ccccc2)c(-c2ccccc2)c(-c2ccc(F)cc2)n1CC[C@@H](O)C[C@@H](O)CC(=O)O [ATORVASTATIN]
Compound NOT metabolized | CN(C)CCc1c[nH]c2ccc(Cn3cncn3)cc12.O=C(O)c1ccccc1 [RIZATRIPTAN BENZOATE]

Conditions: human gut metagenome, 24 h, 2 µM
Remark: another data set of the same source

Bacterial Biotransformation | Compound
Compound NOT metabolized | CC(C)c1c(C(=O)Nc2ccccc2)c(-c2ccccc2)c(-c2ccc(F)cc2)n1CC[C@@H](O)C[C@@H](O)CC(=O)O [ATORVASTATIN]
Compound NOT metabolized | CN(C)CCc1c[nH]c2ccc(Cn3cncn3)cc12.O=C(O)c1ccccc1 [RIZATRIPTAN BENZOATE]

Assay: as §1, with “WLS-038” for “WLS-027”, “ERS12561745” for “ERS12561744”
Conditions: 2 µM

Bacterial Biotransformation | Compound
Compound metabolized | CC(C)c1c(C(=O)Nc2ccccc2)c(-c2ccccc2)c(-c2ccc(F)cc2)n1CC[C@@H](O)C[C@@H](O)CC(=O)O [ATORVASTATIN]
Compound NOT metabolized | CN(C)CCc1c[nH]c2ccc(Cn3cncn3)cc12.O=C(O)c1ccccc1 [RIZATRIPTAN BENZOATE]

Conditions: human gut metagenome, 24 h, 2 µM
Remark: another data set of the same source

Bacterial Biotransformation | Compound
Compound metabolized | CC(C)c1c(C(=O)Nc2ccccc2)c(-c2ccccc2)c(-c2ccc(F)cc2)n1CC[C@@H](O)C[C@@H](O)CC(=O)O [ATORVASTATIN]
Compound NOT metabolized | CN(C)CCc1c[nH]c2ccc(Cn3cncn3)cc12.O=C(O)c1ccccc1 [RIZATRIPTAN BENZOATE]

Assay: as §1, with “WLS-170” for “WLS-027”, “ERS12561762” for “ERS12561744”
Conditions: 2 µM

Bacterial Biotransformation | Compound
Compound metabolized | CC(C)c1c(C(=O)Nc2ccccc2)c(-c2ccccc2)c(-c2ccc(F)cc2)n1CC[C@@H](O)C[C@@H](O)CC(=O)O [ATORVASTATIN]

Assay: as §1, with “Z-012” for “WLS-027”, “to” for “to human gut”, “ERS12561812” for “ERS12561744”
Conditions: 2 µM

Bacterial Biotransformation | Compound
Compound NOT metabolized | CC(C)c1c(C(=O)Nc2ccccc2)c(-c2ccccc2)c(-c2ccc(F)cc2)n1CC[C@@H](O)C[C@@H](O)CC(=O)O [ATORVASTATIN]
Compound NOT metabolized | CN(C)CCc1c[nH]c2ccc(Cn3cncn3)cc12.O=C(O)c1ccccc1 [RIZATRIPTAN BENZOATE]

Conditions: human gut metagenome, 24 h, 2 µM
Remark: another data set of the same source

Bacterial Biotransformation | Compound
Compound metabolized | CC(C)c1c(C(=O)Nc2ccccc2)c(-c2ccccc2)c(-c2ccc(F)cc2)n1CC[C@@H](O)C[C@@H](O)CC(=O)O [ATORVASTATIN]
Compound NOT metabolized | CN(C)CCc1c[nH]c2ccc(Cn3cncn3)cc12.O=C(O)c1ccccc1 [RIZATRIPTAN BENZOATE]

Assay: as §1, with “WLS-098” for “WLS-027”, “ERS12561754” for “ERS12561744”
Conditions: 2 µM

Bacterial Biotransformation | Compound
Compound metabolized | CC(C)c1c(C(=O)Nc2ccccc2)c(-c2ccccc2)c(-c2ccc(F)cc2)n1CC[C@@H](O)C[C@@H](O)CC(=O)O [ATORVASTATIN]
Compound NOT metabolized | CN(C)CCc1c[nH]c2ccc(Cn3cncn3)cc12.O=C(O)c1ccccc1 [RIZATRIPTAN BENZOATE]

Assay: as §1, with “Z-011” for “WLS-027”, “mouse” for “human”, “ERS12561811” for “ERS12561744”
Conditions: 2 µM

Bacterial Biotransformation | Compound
Compound NOT metabolized | CC(C)c1c(C(=O)Nc2ccccc2)c(-c2ccccc2)c(-c2ccc(F)cc2)n1CC[C@@H](O)C[C@@H](O)CC(=O)O [ATORVASTATIN]
Compound NOT metabolized | CN(C)CCc1c[nH]c2ccc(Cn3cncn3)cc12.O=C(O)c1ccccc1 [RIZATRIPTAN BENZOATE]

Assay: as §1, with “WLS-007” for “WLS-027”, “ERS12561742” for “ERS12561744”
Conditions: 2 µM

Bacterial Biotransformation | Compound
Compound metabolized | CC(C)c1c(C(=O)Nc2ccccc2)c(-c2ccccc2)c(-c2ccc(F)cc2)n1CC[C@@H](O)C[C@@H](O)CC(=O)O [ATORVASTATIN]
Compound NOT metabolized | CN(C)CCc1c[nH]c2ccc(Cn3cncn3)cc12.O=C(O)c1ccccc1 [RIZATRIPTAN BENZOATE]

Assay: as §1, with “WLS-240” for “WLS-027”, “ERS12561773” for “ERS12561744”
Conditions: 2 µM

Bacterial Biotransformation | Compound
Compound metabolized | CC(C)c1c(C(=O)Nc2ccccc2)c(-c2ccccc2)c(-c2ccc(F)cc2)n1CC[C@@H](O)C[C@@H](O)CC(=O)O [ATORVASTATIN]
Compound NOT metabolized | CN(C)CCc1c[nH]c2ccc(Cn3cncn3)cc12.O=C(O)c1ccccc1 [RIZATRIPTAN BENZOATE]

Conditions: human gut metagenome, 24 h, 2 µM
Remark: another data set of the same source

Bacterial Biotransformation | Compound
Compound metabolized | CC(C)c1c(C(=O)Nc2ccccc2)c(-c2ccccc2)c(-c2ccc(F)cc2)n1CC[C@@H](O)C[C@@H](O)CC(=O)O [ATORVASTATIN]
Compound NOT metabolized | CN(C)CCc1c[nH]c2ccc(Cn3cncn3)cc12.O=C(O)c1ccccc1 [RIZATRIPTAN BENZOATE]

Assay: as §1, with “WLS-010” for “WLS-027”, “ERS12561743” for “ERS12561744”
Conditions: 2 µM

Bacterial Biotransformation | Compound
Compound NOT metabolized | CN(C)CCc1c[nH]c2ccc(Cn3cncn3)cc12.O=C(O)c1ccccc1 [RIZATRIPTAN BENZOATE]
